Source: US20240300932A1, “N-PHENYLIMINE DERIVATIVE AND PREPARATION METHOD AND USE THEREOF” (Guizhou University, priority 2023, published 2024)

What was measured:
Trifoliumre pensL. = assay: Post-emergence herbicidal activity test (stem and leaf spray, pot culture); format: in vivo; conditions: dosage 10 g/mu, 3 weeks after spraying
Method in brief: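 Pot-grown weeds in loam (pH 7), greenhouse at 20–30 °C, sprayed once post-emergence at the 2–3-leaf stage. Compound in acetone with Tween 80 plus methyl oleate oil (1.5 L/ha), applied at 10, 5 and 2.5 g/mu by spray tower. Effect scored 3 weeks after spraying, averaged over three repeats.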

Amaranthus retroflexus = assay: Post-emergence herbicidal activity test (stem and leaf spray, pot culture); format: in vivo; conditions: dosage 10 g/mu, 3 weeks after spraying
Method in brief: (§1)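 Greenhouse pot-grown weeds (loam, pH 7) sprayed post-emergence at 2- to 3-leaf stage with acetone/Tween 80 formulation plus 1.5 liters/ha methyl oleate, at 10, 5 and 2.5 g/mu. Fresh-weight growth control rated 3 weeks later on 0–5 grade scale.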

Echinochloa crusgalli = assay: as above; format: in vivo; conditions: dosage 10 g/mu, 3 weeks after spraying
Method in brief: as §1

Portulaca oleracea = assay: as above; format: in vivo; conditions: dosage 10 g/mu, 3 weeks after spraying
Method in brief: as §1

Abutilon theophrasti = assay: as above; format: in vivo; conditions: dosage 10 g/mu, 3 weeks after spraying
Method in brief: as §1

Setaria viridis = assay: as above; format: in vivo; conditions: dosage 10 g/mu, 3 weeks after spraying
Method in brief: as §1

broad-leaf weeds = assay: Post-emergence herbicidal activity test, broad-leaf weeds as a group; format: in vivo; conditions: 10 a.i.g/mu
Experimental: The weeds were cultivated in a 180 mm×140 mm plastic nutrient pot by a pot-culture method, placed in an enamel tray, and the plastic nutrient pots were filled with surface soil (⅘ of a depth) collected from a farmland and air-dried and sieved, and a soil humidity was controlled at 20% in the initial stage. Weed seeds with plump and uniform grains were selected, soaked in warm water at 25° C. for 6 h, and germinated in a biochemical incubator (dark) at 28° C. The freshly exposed weed seeds were evenly placed on the soil surface, and then covered with 0.5 cm to 1 cm of soil according to the size of the seeds. The weeds are cultivated in a controlled sunlight greenhouse at 20° C. to 30° C., under natural light, and a relative humidity of 57% to 72%. […]
2 weeks after sowing, the test plants were treated at the 2- to 3-leaf stage: the compounds of the present disclosure for testing were dissolved in acetone separately, and added with Tween 80, an emulsifiable oil of 1.5 liters/ha methyl oleate was added as a synergist, and an obtained mixture was diluted with certain water to a certain concentration solution. […] After spraying, the weeds were cultivated in the greenhouse for 3 weeks, and the experimental effects on the weeds were counted. […]

| SMILES | Post-emergence herbicidal activity, Trifoliumre pensL. (grade) (Trifoliumre pensL.) | melting point [°C] | Post-emergence herbicidal activity, A. retroflexus (grade) (Amaranthus retroflexus) | Post-emergence herbicidal activity, E. crusgalli (grade) (Echinochloa crusgalli) | Post-emergence herbicidal activity, P. oleracea (grade) (Portulaca oleracea) | Post-emergence herbicidal activity, A. theophrasti (grade) (Abutilon theophrasti) | Post-emergence herbicidal activity, S. viridis (grade) (Setaria viridis) | control effect against broad-leaf weeds (broad-leaf weeds) [%] |
| --- | --- | --- | --- | --- | --- | --- | --- | --- |
| O=C(Nc1cc(N2C(=O)C3=C(CCCC3)C2=O)c(F)cc1Cl)C1CC1 [Compound D8, N-(2-chloro-5-(1,3-dioxo-1,3,4,5,6,7-hexahydro-2H-isoindole-2-yl)-4-fluorophenyl)cyclopropanecarboxamide] | 5 (Grade 5: the growth control rate is greater than or equal to 85%) | 208 to 210 | 5 (Grade 5: the growth control rate is greater than or equal to 85%) | 3 (Grade 3: the growth control rate is greater than or equal to 40% and less than 60%) | 5 (Grade 5: the growth control rate is greater than or equal to 85%) | 5 (Grade 5: the growth control rate is greater than or equal to 85%) | 3 (Grade 3: the growth control rate is greater than or equal to 40% and less than 60%) |  |
| O=C(Nc1cc(N2C(=O)C3=C(CCCC3)C2=O)c(F)cc1Cl)C1CCC1 [Compound D9, N-(2-chloro-5-(1,3-dioxo-1,3,4,5,6,7-hexahydro-2H-isoindole-2-yl)-4-fluorophenyl)cyclobutanecarboxamide] | 5 (Grade 5: the growth control rate is greater than or equal to 85%) | 145 to 147 | 5 (Grade 5: the growth control rate is greater than or equal to 85%) | 3 (Grade 3: the growth control rate is greater than or equal to 40% and less than 60%) | 5 (Grade 5: the growth control rate is greater than or equal to 85%) | 5 (Grade 5: the growth control rate is greater than or equal to 85%) | 3 (Grade 3: the growth control rate is greater than or equal to 40% and less than 60%) |  |
| O=C(Nc1cc(N2C(=O)C3=C(CCCC3)C2=O)c(F)cc1Cl)C1CCCCC1 [Compound D10, N-(2-chloro-5-(1,3-dioxo-1,3,4,5,6,7-hexahydro-2H-isoindole-2-yl)-4-fluorophenyl)cyclohexanecarboxamide] | 5 (Grade 5: the growth control rate is greater than or equal to 85%) | 93 to 97 | 5 (Grade 5: the growth control rate is greater than or equal to 85%) | 3 (Grade 3: the growth control rate is greater than or equal to 40% and less than 60%) | 5 (Grade 5: the growth control rate is greater than or equal to 85%) | 5 (Grade 5: the growth control rate is greater than or equal to 85%) | 4 (Grade 4: the growth control rate is greater than or equal to 60% and less than 85%) |  |
| O=C(COC(=O)c1cc(N2C(=O)C3=C(CCCC3)C2=O)c(F)cc1Cl)c1ccc(Cl)cc1 [Compound E1, 2-(4-chlorophenyl)-2-oxoethyl-2-chloro-5-(1,3-dioxo-1,3,4,5,6,7-hexahydro-2H-isoindole-2-yl)-4-fluorobenzoate] | 5 (Grade 5: the growth control rate is greater than or equal to 85%) | 138 to 141 | 5 (Grade 5: the growth control rate is greater than or equal to 85%) | 3 (Grade 3: the growth control rate is greater than or equal to 40% and less than 60%) | 5 (Grade 5: the growth control rate is greater than or equal to 85%) | 5 (Grade 5: the growth control rate is greater than or equal to 85%) | 4 (Grade 4: the growth control rate is greater than or equal to 60% and less than 85%) |  |
| O=C(COC(=O)c1cc(N2C(=O)C3=C(CCCC3)C2=O)c(F)cc1Cl)c1ccccc1 [Compound E2, 2-oxo-2-phenylethyl-2-chloro-5-(1,3-dioxo-1,3,4,5,6,7-hexahydro-2H-isoindole-2-yl)-4-fluorobenzoate] | 4 (Grade 4: the growth control rate is greater than or equal to 60% and less than 85%) | 133 to 136 | 5 (Grade 5: the growth control rate is greater than or equal to 85%) | 3 (Grade 3: the growth control rate is greater than or equal to 40% and less than 60%) | 5 (Grade 5: the growth control rate is greater than or equal to 85%) | 5 (Grade 5: the growth control rate is greater than or equal to 85%) | 4 (Grade 4: the growth control rate is greater than or equal to 60% and less than 85%) |  |
| C#CCN1C(=O)COc2cc(F)c(N3C(=O)C4=C(CCCC4)C3=O)cc21 [flumioxazin] |  |  |  |  |  |  |  | 100 |
